Measurements as given in the supplement of paper PMC10331698.
± gives the standard deviation of the averaged measurements.

Experiments:
Assay in all cases: LOEC (log10 uM (lowest observed effect concentration))
Perfluoropinacol = compound: OC(C(F)(F)F)(C(F)(F)F)C(O)(C(F)(F)F)C(F)(F)F [Perfluoropinacol]
Experimental: (§1)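 BioMAP Diversity Plus panel in human primary cell co-cultures, 4 concentrations in duplicate blinded samples. Responses are log10 fold change versus DMSO control, processed with tcpl v2.1.0. A hit is called when responses at any concentration exceed the cutoff (the larger of 3*bmad or log10(1.2)); the lowest observed effect concentration (modl_ga, log10 uM) is reported for hits.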

[1] = compound: FC(F)(I)C(F)(F)C(F)(F)C(F)(F)C(F)(F)C(F)(F)I [1,6-Diiodoperfluorohexane]
Experimental: as §1

[2] = compound: O=C(CC(=O)C(F)(F)C(F)(F)C(F)(F)F)c1cccs1 [(Perfluorobutyryl)-2-thenoylmethane]
Experimental: as §1

[3] = compound: OCCCC(F)(F)C(F)(F)C(F)(F)C(F)(F)C(F)(F)C(F)(F)C(F)(F)C(F)(F)F [3-(Perfluorooctyl)propanol]
Experimental: as §1

[4] = compound: C=CC(=O)OCC(F)(F)C(F)(F)C(F)(F)C(F)(F)COC(=O)C=C [1H,1H,6H,6H-Perfluorohexane-1,6-diol diacrylate]
Experimental: as §1

[5] = compound: OCCC(F)(F)C(F)(F)C(F)(F)C(F)(F)C(F)(F)C(F)(F)C(F)(F)C(F)(F)F [8:2 Fluorotelomer alcohol]
Experimental: as §1

[6] = compound: OCC(F)(F)C(F)(F)C(F)(F)C(F)(F)C(F)(F)C(F)(F)C(F)(F)C(F)(F)CO [1H,1H,10H,10H-Perfluorodecane-1,10-diol]
Experimental: as §1

| Test System | LOEC (log10 uM) (Perfluoropinacol) | LOEC (log10 uM) [1] | LOEC (log10 uM) [2] | LOEC (log10 uM) [3] | LOEC (log10 uM) [4] | LOEC (log10 uM) [5] | LOEC (log10 uM) [6] |
| --- | --- | --- | --- | --- | --- | --- | --- |
| LPS VCAM1 down | 1.54 ± 0.34 | 1.54 ± 0.34 | 1.78 | 1.07 ± 0.32 | 1.3 | 1.07 ± 0.32 |  |
| MyoF CollagenI down | 1.78 | 0.845 | 1.3 | 1.3 | 1.3 | 1.3 |  |
| MyoF CollagenIV down |  |  |  |  | 1.3 |  |  |
| MyoF Decorin down | 1.78 | 1.3 |  | 1.3 | 1.3 | 1.3 |  |
| MyoF IL8 down |  | 1.3 |  | 1.3 | 1.3 | 1.3 |  |
| MyoF MMP1 down |  |  |  | 1.3 |  |  |  |
| MyoF PAI1 down | 1.78 | 1.07 ± 0.32 |  | 1.3 | 1.3 | 1.3 |  |
| MyoF SRB down | 1.78 | 0.845 |  | 1.3 | 1.3 | 1.3 |  |
| MyoF TIMP1 down |  | 1.3 |  | 1.3 | 1.3 | 1.3 |  |
| MyoF bFGF down |  | 0.845 |  | 1.3 | 1.3 | 1.3 |  |
| SAg CD38 down | 1.3 | 1.78 | 1.07 ± 0.32 | 1.3 | 1.3 | 1.3 |  |
| SAg CD69 down | 1.3 | 1.78 | 0.845 | 1.54 ± 0.34 | 1.3 | 1.54 ± 0.34 |  |
| SAg Eselectin down | 1.3 | 1.78 | 0.845 | 1.78 | 0.845 | 1.54 ± 0.34 |  |
| SAg IL8 down | 1.54 ± 0.34 | 1.78 | 1.07 ± 0.32 | 1.78 | 1.3 | 1.78 |  |
| SAg MCP1 down | 1.54 ± 0.34 | 1.78 | 1.3 | 1.54 ± 0.34 | 1.07 ± 0.32 | 1.78 |  |
| SAg MIG down | 1.78 | 1.78 | 1.78 | 1.78 | 1.3 | 1.78 |  |
| hDFCGF CollagenI down |  |  | 1.3 |  |  | 1.78 |  |
| hDFCGF EGFR down | 1.54 ± 0.34 |  |  | 0.845 |  | 1.54 ± 0.34 | 1.78 |
| hDFCGF ICAM1 down |  | 0.845 |  | 1.07 ± 0.32 | 0.845 | 1.3 | 1.78 |
| hDFCGF IL8 down |  | 0.845 |  | 1.3 | 1.3 | 1.3 | 1.78 |
| hDFCGF MCP1 up | 1.3 |  |  |  |  |  |  |
| hDFCGF MMP1 down |  | 0.845 | 1.3 | 1.3 | 1.3 | 1.3 | 1.78 |
| hDFCGF PAI1 down | 1.78 | 0.845 |  | 0.845 | 1.3 | 1.3 | 1.78 |
| hDFCGF SRB down |  | 0.845 |  | 0.845 | 0.845 | 1.3 | 1.54 ± 0.34 |
| hDFCGF SRB up |  |  | 0.845 |  |  |  |  |
| hDFCGF TIMP1 down |  | 1.07 ± 0.32 |  | 1.07 ± 0.32 | 0.845 | 1.3 | 1.78 |
